Experimental data reported in ChEMBL document CHEMBL5620368, “Molecular-level strategic goals and repressors in Leishmaniasis - Integrated data to accelerate target-based heterocyclic scaffolds” (Eur J Med Chem, 2023).
≈ marks a conversion by molar mass, not a printed value. Values belong to the compound of their own block, whether it stands above or below them.

What was measured:
[1] = Inhibition of recombinant Leishmania mexicana Trypanothione reductase
Leishmania amazonensis [2] = assay: Antileishmanial activity against Leishmania amazonensis promastigotes assessed as parasite growth inhibition incubated for 24 hrs; type: functional, organism-based
Leishmania amazonensis [3] = assay: Antileishmanial activity against axenic amastigote form of patient derived Leishmania amazonensis MHOM/BR/77/LTB001 assessed as parasite growth inhibition incubated for 24 hrs; type: functional, organism-based; conditions: MHOM/BR/77/LTB001, 24 h
Leishmania braziliensis [4] = assay: Antileishmanial activity against Leishmania braziliensis MHOM/Br/75/M2903 amastigotes assessed as reduction in parasite growth incubated for 72 hrs by MTT assay; type: functional, organism-based; conditions: MHOM/Br/75/M2903, 72 h
Leishmania braziliensis [5] = assay: Antileishmanial activity against Leishmania braziliensis MHOM/Br/75/M2903 promastigotes assessed as reduction in parasite growth incubated for 72 hrs by MTT assay; type: functional, organism-based; conditions: MHOM/Br/75/M2903, 72 h
[6] = Cytotoxicity against mouse Peritoneal macrophages assessed as reduction in cell viability incubated for 24 hrs by MTT assay; type: toxicity, cell-based, Peritoneal macrophage
Leishmania tropica = assay: Antileishmanial activity against Leishmania tropica promastigote assessed as inhibition of parasite growth incubated for 72 hrs by MTT assay; type: functional, organism-based
Leishmania infantum [7] = assay: Antileishmanial activity against Leishmania infantum promastigotes assessed as reduction in cell viability incubated for 24 hrs by propidium iodide staining based flow cytometry assay; type: functional, organism-based
Leishmania infantum [8] = assay: Antiprotozoal activity against Leishmania infantum intracellular amastigotes infected in human THP-1 derived macrophage cells assessed as reduction in parasite viability measured for 72 hrs by resazurin/alamar blue fluorometric assay; type: functional, organism-based; conditions: THP-1, 72 h
Leishmania amazonensis [9] = assay: Antileishmanial activity against Leishmania amazonensis intracellular amastigotes assessed as parasite growth inhibition at 109 uM incubated for 96 hrs relative to control; type: functional; parameters: scale not given: the % may be the effect or the level left
Leishmania donovani = assay: Antileishmanial activity against Leishmania donovani promastigotes assessed as reduction in parasite growth incubated for 48 hrs by MTT assay; type: functional, organism-based

- IC50 [1]: 58 µM
Compound: O=C(NCc1ccc2ncccc2c1)c1cnn(-c2ncc3c(n2)-c2ccccc2CCC3)c1C1CC1

Compound: CC1=CC(=O)C[C@H]2[C@H]1CC[C@@H](C)C21C[C@H](c2ccoc2)OC1=O (stereo partly specified)
- IC50 (Leishmania amazonensis [2]): 6.3 µg/mL (≈ 20 µM)
- IC50 (Leishmania amazonensis [3]): 20 µg/mL (≈ 63.6 µM)

Compound: Oc1ccc(/C=N\Nc2ccccc2)c(O)c1
- IC50 (Leishmania braziliensis [4]): 21.7 µM
- IC50 (Leishmania braziliensis [5]): 7.3 µM

Compound: CC/C=C\C/C=C\CCC/C=C/C=C/C=C\CCCC(=O)O
- IC50 at 24 h [6]: 2 µM

Compound: C[C@@H]1O[C@@H](OC[C@H]2O[C@@H](Oc3c(-c4ccc(O)c(O)c4)oc4cc(O)cc(O)c4c3=O)[C@H](O)[C@@H](O)[C@@H]2O)[C@H](O)[C@H](O)[C@H]1O [RUTIN]
- IC50 (Leishmania tropica): 91.2 µg/mL (≈ 149 µM)

Compound: CC[C@@]1(O)C(=O)OCc2c1cc1n(c2=O)Cc2c-1nc1ccccc1c2/C=N/OC(C)(C)C [GIMATECAN]
- IC50 (Leishmania infantum [7]): 1.73 µM
- IC50 (Leishmania infantum [8]): 0.1 µM

Compound: C=C(C)[C@@H]1CC[C@@]2(C)[C@H]1[C@H]1CC[C@@H]3[C@@]4(C)CC[C@H](O)C(C)(C)[C@@H]4[C@H](O)C[C@@]3(C)[C@]1(C)C[C@@H]2O
- Activity (Leishmania amazonensis [9]): 80%

Compound: CC[C@H](CC[C@@H](C)[C@H]1CC[C@H]2[C@@H]3CC=C4C[C@@H](O)CC[C@]4(C)[C@H]3CC[C@]12C)C(C)C [BETA-SITOSTEROL]
- IC50 (Leishmania donovani): 17.7 µg/mL (≈ 42.7 µM)
